Assay results: PubChem BioAssay (NCI)
Several values for one entry are separate records, joined by “and”; a condition that tells them apart may be missing. Equal values may be shown once.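 Each compound was tested at five concentrations against cells in 96-well plates for 48 hours. GI50 = concentration required for 50% inhibition of growth. TGI marks complete inhibition of growth.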

Assays:
Experiment in all cases: NCI tumour cell line growth inhibition, 48 h
[1] = tested on: OVCAR-3 ovarian
[2] = tested on: OVCAR-8 ovarian
[3] = tested on: CAKI-1 renal
[4] = tested on: SN12C renal
[5] = tested on: 786-0 renal
[6] = tested on: HT29 colon
[7] = tested on: SNB-75 CNS
[8] = tested on: NCI-H23 lung
[9] = tested on: SF-268 CNS
[10] = tested on: TK-10 renal
[11] = tested on: HCC-2998 colon
[12] = tested on: UACC-257 melanoma
[13] = tested on: DU-145 prostate
[14] = tested on: MDA-MB-231 breast
[15] = tested on: UO-31 renal
[16] = tested on: SF-539 CNS
[17] = tested on: HCT-116 colon
[18] = tested on: HCT-15 colon
[19] = tested on: K-562 leukemia
[20] = tested on: M14 melanoma
[21] = tested on: SK-MEL-5 melanoma
[22] = tested on: SK-MEL-2 melanoma
[23] = tested on: RPMI-8226 leukemia
[24] = tested on: BT-549 breast
[25] = tested on: MDA-MB-435
[26] = tested on: LOX IMVI melanoma
[27] = tested on: UACC-62 melanoma
[28] = tested on: SK-MEL-28 melanoma
[29] = tested on: OVCAR-4 ovarian

COc1cc(C2C3=C(COC3=O)N(CCO)c3cc4c(cc32)OCO4)cc(OC)c1OC (stereo not given)
GI50 [1]: 244 nM and 319 nM | TGI [1]: 542 nM and 668 nM | GI50 [2]: 427 nM and 770 nM | TGI [2]: 12500 nM and > 16800 nM | GI50 [3]: 8660 nM and 2390 nM | TGI [3]: 12500 nM and > 16800 nM | GI50 [4]: 1250 nM and 1130 nM | TGI [4]: 12500 nM and > 16800 nM | GI50 [5]: 474 nM and 754 nM | TGI [5]: 12500 nM and > 16800 nM | GI50 [6]: 403 nM and 585 nM | TGI [6]: 1940 nM and 2030 nM | GI50 [7]: 514 nM and 251 nM | TGI [7]: 12500 nM and > 16800 nM | GI50 [8]: 412 nM and 574 nM | TGI [8]: 2460 nM and > 16800 nM | GI50 [9]: 321 nM and 872 nM | TGI [9]: 2050 nM and > 16800 nM | GI50 [10]: 1240 nM and 2730 nM | TGI [10]: 12500 nM and > 16800 nM | GI50 [11]: 697 nM and 702 nM | TGI [11]: 6210 nM and 5110 nM | TGI [12]: 12500 nM and > 16800 nM | GI50 [13]: 342 nM and 550 nM | TGI [13]: 1020 nM and 2590 nM | GI50 [14]: 971 nM and 1600 nM | TGI [14]: 12500 nM and > 16800 nM | TGI [15]: 12500 nM and > 16800 nM | GI50 [16]: 323 nM and 434 nM | TGI [16]: 947 nM and 3010 nM | GI50 [17]: 468 nM and 524 nM | TGI [17]: 12500 nM and 13800 nM | GI50 [18]: 1520 nM and 1130 nM | TGI [18]: 12500 nM and > 16800 nM | GI50 [19]: 406 nM and 489 nM | TGI [19]: 12500 nM and > 16800 nM | GI50 [20]: 311 nM and 363 nM | TGI [20]: 926 nM and 1380 nM | GI50 [21]: 359 nM and 561 nM | TGI [21]: 2460 nM and 4350 nM | GI50 [22]: 298 nM and 979 nM | GI50 [23]: 521 nM and 715 nM | TGI [23]: 12500 nM and > 16800 nM | GI50 [24]: 4330 nM and 834 nM | TGI [24]: 12500 nM and 9330 nM | GI50 [25]: 175 nM and 151 nM | TGI [25]: 592 nM and 616 nM | GI50 [26]: 976 nM | TGI [26]: > 16800 nM | GI50 [27]: 1000 nM and 565 nM | TGI [27]: 12500 nM and > 16800 nM | GI50 [28]: 706 nM and 1080 nM | TGI [28]: 12500 nM and > 16800 nM | GI50 [29]: 706 nM and 987 nM | TGI [29]: 12500 nM and > 16800 nM
